Assay results reported in patent US12667546B2, “Methods for manipulating cell state transitions in cancer” (AGENCY FOR SCIENCE, TECHNOLOGY AND RESEARCH, priority 2018, dated 2026).
Values joined by “and” are separate entries in the source; they are usually repeats but may differ in a detail not shown here. Equal entries are not always repeated. Structures can show the parent of a compound that is named as a salt. Where two headings read alike, the source gives them in different places.

Key:
[1] = test system: SERPINE1prom-Luc reporter in NAMEC8 cells; assay: Dual-Glo luciferase assay of SERPINE1prom-Luc reporter (FF/Ren); assay type: cell-based, human; conditions: for activity at 10 µM: Homo sapiens, 72 h, read-out: Avr FF/Renilla from DMSO; for dose-dependent change of SERPINE1 promoter activity: dose response (metabolic hits 10 nM to 2 μM; epigenetic hits six concentrations)
Excerpt: pGreenFire1-mCMV was cut using ClaI and SpeI and gel purified. Promoter sequences of genes Zeb1, Serpine1, CDH1, CD24, CD44, CD166 were amplified from human genomic DNA with pre-designed primers containing ClaI and SpeI restriction cut sites using AccuPrime Taq DNA Polymerase (Thermo Fisher Scientific). PCR products were then digested with restriction enzymes and gel-purified. Vector was ligated with PCR insert using Quick Ligase (Fermentas) and transformed into Stb12 competent cells. Colonies were picked and inoculated into TB media with ampicillin. Plasmids were then isolated using a plasmid miniprep kit (Qiagen) and sent for sequencing (1 stBASE Laboratories). After verifying the plasmid sequence, transfection into HEK293 cells was carried out to generate lentivirus. Transfection was carried out using FuGENE 6 (Promega). Viral supernatant was harvested at 24 h and 48 h. NAMEC8 cells were then infected twice with virus using polybrene ([…]) and checked for good transduction efficiency using Dual-Glo Luciferase System (Promega).
Stock plates of compound libraries were kindly prepared by GIS CHiP facility at 1 mM concentration in DMSO. NAMEC8-SERPINE1prom-Luc cells were seeded into 384 well plates at a density of 700 cells/well in a total volume of 50 μl, using an automated dispensing system (BioTek). 0.5 μl of compounds were then added to the wells the following day using a robotic pin transfer with a Bravo workstation (Agilent Technologies). Cells were then grown for 3 days and promoter-luciferase activity was measured using the Dual-Glo Luciferase System (Promega).
Assay was carried out according to manufacturer's instructions. To measure luciferase activity in 384 well plates, media was first removed from the plate. Firefly luciferase activity was determined by adding 30 μl Dual-Glo Luciferase substrate (Promega) to the wells and incubated for 10 min before measuring luminescence using a TECAN M1000 Pro plate reader. 15 μl Dual-Glo Stop & Glo substrate was then added to the wells, incubated for 10 min and measuring luminescence on the plate reader to determine Renilla luciferase activity. Promoter luciferase activity is then calculated by taking Firefly luciferase over Renilla luciferase.

[2] = test system: NAMEC8-SERPINE1prom-Luc cells; assay: Renilla-luciferase (constitutive CMV promoter) readout for cell numbers; assay type: cell-based, human; conditions: for viability at 10 µM: Homo sapiens, 72 h, read-out: % Avr Renilla from DMSO
[3] = primary screen, NAMEC8-SERPINE1prom-Luc cells grown 3 days with compound, relative to DMSO
[4] = primary screen, Renilla as readout for cell numbers, relative to DMSO
[5] = primary screen, […], relative to DMSO

| Compound | Avr FF/Renilla from DMSO [1, 3] | % Avr Renilla from DMSO [2, 4] | activity at 10 µM [1, 3] | viability at 10 µM [2, 4] | further results |
| --- | --- | --- | --- | --- | --- |
| CCCCC/C=C\C=C1\C(=O)C[C@H](O)[C@@H]1C/C=C\CCCC(=O)O [15-deoxy-_12,14-Prostaglandin D2] | 0.57 | 68.09% | – | – | – |
| CN(Cc1cnc2nc(N)nc(N)c2n1)c1ccc(C(=O)N[C@@H](CCC(=O)O)C(=O)O)cc1 [Abitrexate (Methotrexate), Methotrexate] | – | – | 56% | 55.6% | – |
| CC1=C(/C=C/C(C)=C/C=C/C(C)=C\C(=O)O)C(C)(C)CCC1 [Isotretinoin] | – | – | 37% | 84.1% | – |
| CCO.N#CC(=C(/N)Sc1ccccc1N)/C(C#N)=C(\N)Sc1ccccc1N [U0126-EtOH] | 0.62 | 76.21% | – | – | – |
| CCOC(=O)c1ccc(C#Cc2ccc3c(c2)C(C)(C)CCS3)nc1 [Tazarotene] | – | – | 59% | 67% | – |
| O=[N+]([O-])c1ccc(CNc2nc(NCc3cccc(C(F)(F)F)c3)nc3nc[nH]c23)cc1 [TNP] | – | – | – | – | Avr FF/Renilla from DMSO [1]: 0.88; % Avr Renilla from DMSO [2]: 80.47% |
| CCCn1c(=O)c2[nH]c(-c3ccc(S(=O)(=O)O)cc3)nc2n(CCC)c1=O [1,3-Dipropyl-8-p-sulfophenylxanthine] | – | – | 61% | 103% | – |
| CAY10587 | 0.56 | 72.88% | – | – | – |
| CN([C@@H](Cc1ccc(OS(=O)(=O)c2cccc3cnccc23)cc1)C(=O)N1CCN(c2ccccc2)CC1)S(=O)(=O)c1cccc2cnccc12 [KN-62] | 0.43 | 67.80% | – | – | – |
| CCN(CC)CCCCNc1ncc2cc(-c3c(Cl)cccc3Cl)c(NC(=O)NC(C)(C)C)nc2n1 [PD-161570] | 0.39 | 74.13% | – | – | – |
| CCCCCCCCc1ccc(-c2ccc(C(=O)O)cc2)cc1 [AC-55649] | 0.59 | 106.55% | – | – | – |
| Cc1cc(Nc2ncnc3ccc(NC4=NC(C)(C)CO4)cc23)ccc1Oc1ccn2ncnc2c1 [Arry-380] | – | – | 73% | 67.3% | – |
| CC(=O)O[C@@]12C[C@@H](C)[C@@]3(O)[C@@H](C=C(CO)C[C@]4(O)C(=O)C(C)=C[C@@H]34)[C@@H]1C2(C)C [Prostratin] | – | – | 55% | 146% | – |
| COc1ccc(S(=O)(=O)N(CCO)c2ccccc2CN(C)C/C=C/c2ccc(Cl)cc2)cc1 [KN-93] | 0.59 | 54.45% | – | – | – |
| O=C(O)CCC/C=C\C[C@H]1C(=O)C=C[C@@H]1/C=C/[C@@H](O)COc1ccccc1 [16-phenoxy tetranor Prostaglandin A2] | 0.59 | 82.64% | – | – | – |
| Cn1cc(C2=C(c3ccc(Cl)cc3Cl)C(=O)NC2=O)c2ccccc21 [SB 216763] | 0.56 | 107.55% | – | – | – |
| CCCCCCCCCCCCC/C=C/[C@@H](O)[C@H](CO)NC(=O)CCCCCCC [C-8 Ceramide] | 0.54 | 70.74% | – | – | – |
| O=C(Nc1ccc2[nH]ncc2c1)C1CCC1 [Rhodblock 6] | 0.87 | 89.97% | – | – | – |
| N#CC(=C(/N)Sc1ccccc1N)/C(C#N)=C(\N)Sc1ccccc1N [U0126] | – | – | – | – | activity at 10 µM [1]: 45%; viability at 10 µM [2]: 102% |
| CS(=O)(=O)N1CCc2c(-c3cnc(N)nc3)nc(N3CCOCC3)nc21 [CH5132799] | – | – | 71% | 50.6% | – |
| CNC(=O)c1ccc(C)c(-n2c(C)cc(OCc3ccc(F)cc3F)c(Br)c2=O)c1 [PH-797804] | – | – | 67% | 53% | – |

| Compound | Avr FF/Renilla from DMSO [1, 3] | % Avr Renilla from DMSO [2, 4] | activity at 10 µM [1, 3] | viability at 10 µM [2, 4] | further results |
| --- | --- | --- | --- | --- | --- |
| NC(=O)c1ccc(-c2nc(-c3ccccn3)c(-c3ccc4c(c3)OCO4)[nH]2)cc1 [SB 431542] | 0.50 | 51.90% | – | – | – |
| CC1(C)CNc2cc(NC(=O)c3cccnc3NCc3ccncc3)ccc21 [Motesanib Diphosphate (AMG-706), Motesanib Diphosphate] | – | – | 70% | 50.9% | – |
| C=CCc1ccccc1OCC(O)CNC(C)C (stereo not shown) [Alprenolol hydrochloride] | – | – | 80% | 90.2% | – |
| CN1CCc2cccc3c2[C@H]1Cc1ccc(O)c(O)c1-3 [Apomorphine hydrochloride hemihydrate] | – | – | 84% | 85.1% | – |
| CCCCCC(O)/C=C/C1C(=O)CC(O)C1C/C=C\CCCC(=O)OCC(O)CO (stereo not shown) [Prostaglandin D2-1-glyceryl ester] | 0.59 | 58.41% | – | – | – |
| NC(=O)c1ccc(-c2nc(-c3ccc4c(c3)OCCO4)c(-c3ccccn3)[nH]2)cc1 [D 4476] | 0.57 | 53.26% | – | – | – |
| Cc1cccc(-c2[nH]c(C(C)(C)C)nc2-c2ccc3nccnc3c2)n1 [SB-525334] | 0.37 | 51.73% | – | – | – |
| O=c1[nH]c(=O)n([C@H]2C[C@H](O)[C@@H](CO)O2)cc1Br [5-Bromo-2′-deoxyuridine] | – | – | 67% | 65.7% | – |
| COc1ccc(Br)cc1S(=O)(=O)NC(=O)/C=C/c1ccccc1Cc1ccc2ccccc2c1 [L-798106] | 0.13 | 68.99% | – | – | – |
| CCCCC/C=C\C/C=C\C/C=C\C/C=C\CCCC(=O)NCc1ccoc1 [UCM707] | – | 88.05% | – | – | Avr FF/Renilla from DMSO [1, 5]: 0.57 |
| CCCCC(C)(C)[C@H](O)/C=C/[C@H]1C(=O)C[C@H](O)[C@@H]1C/C=C\CCCC(=O)O [16,16-dimethyl Prostaglandin D2] | 0.48 | 52.62% | – | – | – |
| N[C@@H](CC(=O)O)C(=O)O [L-Aspartic acid] | – | – | 71% | 99.3% | – |
| CCSC(=N)Nc1ccc(C(F)(F)F)cc1 [S-ethyl N-[4-(trifluoromethyl)phenyl] Isothiourea (hydrochloride)] | – | – | 59% | 76.8% | – |
| S=C(NCc1ccc2c(c1)OCO2)N1CCN(c2ncnc3c2oc2ccccc23)CC1 [Amuvatinib (MP-470)] | 0.37 and 0.23 | 140.20% and 213.43% | – | – | – |
| CC1(C(=O)O)C2CCC(O2)C1(C)C(=O)O (stereo not shown) [Cantharidic Acid] | – | – | – | 74.6% | activity at 10 µM [1, 5]: 40% |
| CCCCc1oc2ccccc2c1C(=O)c1cc(I)c(OCCN(CC)CC)c(I)c1 [Amiodarone hydrochloride] | – | – | 59% | 86.9% | – |
| CC[C@H](CO)Nc1nc(NCc2ccccc2)c2ncn(C(C)C)c2n1 [Roscovitine (Seliciclib, CYC202), Roscovitine] | – | – | – | 53.7% | activity at 10 µM [1]: 63% |
| O=C(Nc1cccc(C(F)(F)F)c1)Nc1cc(S(=O)(=O)NC2CC2)ccc1-c1ccsc1 [AGI-6780] | – | – | – | – | dose-dependent change of SERPINE1 promoter activity [1]: dose dependent decrease in SERPINE1 promoter activity |
| COc1cccc(Nc2c(C(N)=O)cnc3c(C)cc(S(=O)(=O)c4cccc(C(=O)N(C)C)c4)cc23)c1 [GSK256066] | – | – | – | – | dose-dependent change of SERPINE1 promoter activity [1]: dose dependent decrease in SERPINE1 promoter activity |
| Cc1cccc(-c2nn(C(=S)Nc3ccccc3)cc2-c2ccnc3ccccc23)n1 [A83-01] | – | – | – | – | downregulation of SERPINE1prom-Luc ([1]; positive control treatment): at least 50% |
